These results are taken from patent publication US11787833B2, “Modified cyclic dinucleoside compounds as sting modulators” (ALIGOS THERAPEUTICS, INC., priority 2019, dated 2023).

Usually EC50 stands for the concentration that produces a half-maximal response.

Like-named read-outs stand apart in the source and are kept apart here. Bounds are passed on as bounds.

This test concerns the target T1, 293T-Dual hSTING-R232 cells (Homo sapiens, UniProt Q86WV6, H232R).
T1 construct: host or cells: 293T-Dual hSTING-R232 cells (HEK 293T)
The experiment in a line: 293T R232 cell reporter assay (HEK 293T reporter assay). It is filed as cell-based. Conditions: digitonin 10 μg/mL, 30 min exposure, 20 h incubation. As to the method: 293T-Dual hSTING-R232 cells (Invivogen) were plated in 96 well plates at a density of 5×10^4 cells per well in DMEM supplemented with 10% FBS, 1% Pen-Strep, 1% non-essential amino acids, 1% glutamine, and 1% HEPES. Assay setup took place after allowing cells to adhere for 48 h. Compounds dissolved in water were serially diluted in dosing buffer containing 10 μg/mL digitonin. Media was aspirated from the cells, and 50 μL buffer with compound was added in triplicate. After 30 min at 37° C., buffer was aspirated and replaced with 100 μL media. Cells were incubated for 20 h at 37° C., 5% CO2. IFN-beta expression and activation of the interferon regulatory factor (IRF) were measured based on luciferase and alkaline phosphatase reporter activity, respectively. Cell viability was determined in parallel.
A general note: A reporter such as luciferase makes a cellular process visible.

Where [1] appears, read: alkaline phosphatase reporter, read-out: EC50 [μM] IRF reporter.
The mark [2] stands for this setting: luciferase reporter, read-out: EC50 [μM] IRN-β reporter.
Setting [3] is: EC50 [μM] IRF reporter, alkaline phosphatase reporter.
[4] abbreviates: EC50 [μM] IRN-β reporter, luciferase reporter.

T1 sequence (Q86WV6 whole entry H232R): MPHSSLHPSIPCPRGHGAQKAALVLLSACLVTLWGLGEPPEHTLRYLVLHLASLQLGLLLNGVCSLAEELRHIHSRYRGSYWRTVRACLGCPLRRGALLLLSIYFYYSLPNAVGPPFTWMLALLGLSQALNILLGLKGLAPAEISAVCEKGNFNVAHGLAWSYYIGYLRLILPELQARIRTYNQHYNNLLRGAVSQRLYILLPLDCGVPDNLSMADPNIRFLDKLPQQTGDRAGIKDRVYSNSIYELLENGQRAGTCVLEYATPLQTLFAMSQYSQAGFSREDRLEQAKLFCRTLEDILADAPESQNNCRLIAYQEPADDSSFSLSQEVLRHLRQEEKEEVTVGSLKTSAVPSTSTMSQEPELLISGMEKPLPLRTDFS

On to `Nc1nc2c(ncn2C2SC3COP(=O)(S)OC4C(O)C(n5cnc6c(N)ncnc65)C5CC54COP(=O)(O)OC2C3O)c(=O)[nH]1` (single isomer, unassigned) [Compound 1-30a], for which the EC50 under setting [1] fell in the range of 0.25 to 100 µM and the EC50 under setting [2] is 0.25 to 100 µM.

For `Nc1ncnc2c1ncn2[C@H]1[C@H](O)[C@@H]2O[P@](=O)([S][Na])OC[C@H]3O[C@@H](n4cnc5c(N)ncnc54)[C@H](OP(=O)(O)OC[C@@]24C[C@H]14)[C@@H]3O` [Compound 1-15a], the EC50 under setting [3] is above 100 µM and the EC50 under setting [4] was above 100 µM.

Regarding `Nc1nc2c(ncn2C2OC34COP(=O)(O)OC5C6OCC5(COP(=O)(O)OC2C3C4)OC6n2cnc3c(N)ncnc32)c(=O)[nH]1` (stereo not drawn) [Compound 1-27], the concentration giving a half-maximal response (EC50) was below 0.25 µM under setting [1] and below 0.25 µM under setting [2].

For `Nc1nc2c(ncn2[C@H]2[C@H](O)[C@@H]3OP(=O)(O)OC[C@H]4O[C@@H](n5cnc6c(N)ncnc65)[C@H](F)[C@@H]4OP(=O)(O)OC[C@@]34C[C@H]24)c(=O)[nH]1` [Compound 1-9], the EC50 reads like this: under setting [1], below 0.25 µM; under setting [2], below 0.25 µM.

In the case of `Nc1ncnc2c1ncn2[C@H]1[C@H](O)[C@@H]2O[P@](=O)([S][Na])OC[C@H]3O[C@@H](n4cnc5c(=O)[nH]cnc54)[C@H](F)[C@@H]3OP(=O)(O)OC[C@@]23C[C@H]13` [Compound 1-20a], the 50% effective concentration (EC50) fell in the range of 0.25 to 100 µM under setting [3] and 0.25 to 100 µM under setting [4].

For the compound `Nc1nc2c(ncn2[C@H]2[C@@H]3OP(=O)(O)OC[C@]45C[C@@H]4[C@@H](n4cnc6c(N)ncnc64)[C@H](O)[C@@H]5O[P@](=O)([S][Na])OC[C@@]4(C[C@H]24)[C@H]3O)c(=O)[nH]1` [Compound 1-37], the EC50 is 0.25 to 100 µM under setting [3] and above 100 µM under setting [4].

`Nc1ncnc2c1ncn2[C@H]1[C@H](O)[C@@H]2O[P@@](=O)([S][Na])OC[C@H]3O[C@@H](n4cnc5c(N)ncnc54)[C@H](OP(=O)(O)OC[C@@]24C[C@H]14)[C@@H]3O` [Compound 1-15b]: the concentration for a half-maximal effect (EC50) is, setting by setting: under setting [3], 0.25 to 100 µM; under setting [4], 0.25 to 100 µM.

With `Nc1nc2c(ncn2[C@@]23C[C@H]2[C@@H]2COP(=O)(O)O[C@H]4[C@@H](F)[C@H](n5cnc6c(N)ncnc65)O[C@@H]4COP(=O)(O)O[C@@H]3[C@@H]2O)c(=O)[nH]1` [Compound 1-24], the EC50 is, setting by setting: under setting [1], 0.25 to 100 µM; under setting [2], above 100 µM.

On to `Nc1nc2c(ncn2C2OC34COC2C3OP(=O)(O)OCC2OC(c3snc5c(N)ncnc35)CC2OP(=O)(O)OC4)c(=O)[nH]1` (stereo not drawn) [Compound 1-52], for which the concentration giving a half-maximal response (EC50) under setting [1] was below 0.25 µM and the EC50 under setting [2] lay within 0.25 to 100 µM.

For the compound `CO[C@H]1[C@H]2OP(=O)(O)OC[C@H]3O[C@@H](n4cnc5c(N)nnnc54)[C@H](O)[C@@H]3OP(=O)(O)OC[C@H]1O[C@H]2n1cnc2c(=O)[nH]c(N)nc21` [Compound 1-11], the 50% effective concentration (EC50) is above 100 µM under setting [1] and above 100 µM under setting [2].

As to `Nc1nc2c(ncn2[C@@H]2O[C@@H]3COP(=O)(O)O[C@@H]4[C@@H](COP(=O)(O)O[C@H]3[C@H]2O)[C@@H]2C[C@@]2(n2cnc3c(N)ncnc32)[C@@H]4O)c(=O)[nH]1` [Compound 1-17], the EC50 under setting [1] was below 0.25 µM and the EC50 under setting [2] was below 0.25 µM.

`COC1C2COP(=O)(O)OC3C(COP(=O)(O)OC1C(c1scc4c(=O)[nH]c(N)nc14)O2)OC(n1cnc2c(N)ncnc21)C3F` (stereo not drawn) [Compound 1-5]: the EC50 is, setting by setting: under setting [1], below 0.25 µM; under setting [2], below 0.25 µM.

Consider `COC1C2COP(=O)(S)OC3C(COP(=O)(O)OC1C(n1cnc4c(=O)[nH]c(N)nc41)O2)C1CC1(n1cnc2c(N)ncnc21)C3O` (stereo not drawn) [Compound 1-16a], for which the EC50 runs as follows: under setting [1], 0.25 to 100 µM; under setting [2], 0.25 to 100 µM.

As for `Nc1nc2c(ncn2C2SC3COP(=O)(S)OC4C(O)C(n5cnc6c(N)ncnc65)C5CC54COP(=O)(O)OC2C3O)c(=O)[nH]1` (single isomer, unassigned) [Compound 1-30b], the EC50 reads like this: under setting [1], above 100 µM; under setting [2], above 100 µM.

`Nc1nc2c(nnn2[C@@H]2O[C@@H]3CO[P@@](=O)([S][Na])O[C@H]4[C@@H](O)[C@H](n5cnc6c(N)ncnc65)[C@H]5C[C@@]54COP(=O)(O)O[C@@H]2[C@@H]3O)c(=O)[nH]1` [Compound 1-34b]: the concentration giving a half-maximal response (EC50) is 0.25 to 100 µM under setting [3] and 0.25 to 100 µM under setting [4].

In the case of `COC1C2COP(=O)(S)OC3C(COP(=O)(S)OC1C(c1snc4c(=O)[nH]c(N)nc14)O2)OC(n1cnc2c(N)ncnc21)C3F` (stereo not drawn) [Compound 1-48d], under setting [1], the EC50 was below 0.25 µM.

Turning to `Nc1ncnc2c1ncn2C1OC2COP(=O)(S)OC3C(O)C(n4cnc5c(N)ncnc54)C4CC43COP(=O)(S)OC1C2O` (single isomer, unassigned) [Compound 1-14a], the EC50 by setting is: under setting [1], 0.25 to 100 µM; under setting [2], above 100 µM.

For `COC1C2COP(=O)(S)OC3C(COP(=O)(S)OC1C(c1snc4c(=O)[nH]c(N)nc14)O2)OC(n1cnc2c(N)ncnc21)C3F` (single isomer, unassigned) [Compound 1-48a], the half-maximal effective concentration (EC50) was 0.25 to 100 µM under setting [1] and 0.25 to 100 µM under setting [2].

For the compound `Nc1ncnc2c1ncn2C1OC2COP(=O)(S)OC3C(O)C(n4cnc5c(N)ncnc54)C4CC43COP(=O)(S)OC1C2O` (stereo not drawn) [Compound 1-14c], the EC50 by setting is: under setting [1], 0.25 to 100 µM; under setting [2], 0.25 to 100 µM.

With `Nc1ncnc2c1ncn2C1OC2COP(=O)(S)OC3C(O)C(n4cnc5c(N)ncnc54)C4CC43COP(=O)(S)OC1C2O` (single isomer, unassigned) [Compound 1-14b], the EC50 by setting is: under setting [1], 0.25 to 100 µM; under setting [2], above 100 µM.

Turning to `COC1C2COP(=O)(S)OC3C(COP(=O)(S)OC1C(c1snc4c(=O)[nH]c(N)nc14)O2)OC(n1cnc2c(N)ncnc21)C3F` (single isomer, unassigned) [Compound 1-48b], the EC50 runs as follows: under setting [1], below 0.25 µM; under setting [2], below 0.25 µM.

Take `COC1C2COP(=O)(O)OC3CC(c4snc5c(N)ncnc45)OC3COP(=O)(O)OC1C(n1cnc3c(=O)[nH]c(N)nc31)O2` (stereo not drawn) [Compound 1-25]: the EC50 is below 0.25 µM under setting [1] and below 0.25 µM under setting [2].

In the case of `CO[C@H]1[C@H]2OP(=O)(O)OC[C@]34C[C@@H]3[C@@H](n3cnc5c(N)ncnc53)[C@H](O)[C@@H]4OP(=O)(O)OC[C@H]1O[C@H]2c1scc2c(=O)[nH]c(N)nc12` [Compound 1-12], the EC50 reads like this: under setting [1], above 100 µM; under setting [2], above 100 µM.

As for `COC1C2COP(=O)(S)OC3C(O)C(n4cnc5c(N)ncnc54)C4CC43COP(=O)(S)OC1C(n1cnc3c(=O)[nH]c(N)nc31)O2` (single isomer, unassigned) [Compound 1-6a], the 50% effective concentration (EC50) was in the range of 0.25 to 100 µM under setting [1] and 0.25 to 100 µM under setting [2].

As to `COC1C2COP(=O)(S)OC3C(O)C(n4cnc5c(N)ncnc54)C4CC43COP(=O)(S)OC1C(n1cnc3c(=O)[nH]c(N)nc31)O2` (single isomer, unassigned) [Compound 1-6b], the 50% effective concentration (EC50) under setting [1] lay within 0.25 to 100 µM.

For `Nc1nc2c(ncn2[C@H]2[C@H](O)[C@@H]3OP(=O)(O)OC[C@H]4O[C@@H](n5cnc6c(N)ncnc65)[C@H](F)[C@@H]4O[P@](=O)([S][Na])OC[C@@]34C[C@H]24)c(=O)[nH]1` [Compound 1-19a], the concentration for a half-maximal effect (EC50) runs as follows: under setting [3], 0.25 to 100 µM; under setting [4], 0.25 to 100 µM.

Consider `CO[C@H]1[C@H]2OP(=O)(O)OC[C@@H]3[C@@H](OP(=O)(O)OC[C@H]1O[C@H]2n1cnc2c(=O)[nH]c(N)nc21)[C@@H](O)[C@]1(n2cnc4c(N)ncnc42)C[C@@H]31` [Compound 1-7], for which the concentration giving a half-maximal response (EC50) under setting [1] is below 0.25 µM and the EC50 under setting [2] was below 0.25 µM.

On to `CO[C@H]1[C@H]2OP(=O)(O)OC[C@]34C[C@@H]3[C@@H](n3cnc5c(N)ncnc53)[C@H](O)[C@@H]4O[P@@](=O)(S)OC[C@H]1O[C@H]2n1nnc2c(=O)[nH]c(N)nc21` [Compound 1-35b], for which the EC50 is below 0.25 µM under setting [1] and 0.25 to 100 µM under setting [2].

As to `Nc1nc2c(ncn2[C@H]2[C@@H]3OP(=O)(O)OC[C@H]4O[C@@H](n5cnc6c(N)ncnc65)[C@H](F)[C@@H]4OP(=O)(O)OC[C@]4(C[C@H]24)[C@H]3O)c(=O)[nH]1` [Compound 1-8], the EC50 was in the range of 0.25 to 100 µM under setting [1] and 0.25 to 100 µM under setting [2].

The compound `Nc1nc2c(ncn2[C@H]2[C@H](O)[C@@H]3OP(=O)(O)OC[C@]45C[C@@H]4[C@@H](n4cnc6c(N)ncnc64)[C@H](O)[C@@H]5O[P@](=O)([S][Na])OC[C@@]34C[C@H]24)c(=O)[nH]1` [Compound 1-38a] showed an EC50 under setting [3] above 100 µM and a concentration for a half-maximal effect (EC50) under setting [4] above 100 µM.

In the case of `COC1C2COP(=O)(S)OC3C(COP(=O)(S)OC1C(c1snc4c(=O)[nH]c(N)nc14)O2)OC(n1cnc2c(N)ncnc21)C3F` (stereo not drawn) [Compound 1-48c], the EC50 is below 0.25 µM under setting [1] and 0.25 to 100 µM under setting [2].

For the compound `CO[C@H]1[C@H]2OP(=O)(O)OC[C@@]34CO[C@@H]([C@H](n5cnc6c(N)ncnc65)O3)[C@@H]4OP(=O)(O)OC[C@H]1O[C@H]2c1snc2c(=O)[nH]c(N)nc12` [Compound 1-49], the half-maximal effective concentration (EC50) was below 0.25 µM under setting [1] and 0.25 to 100 µM under setting [2].

`Nc1nc2c(ncn2[C@H]2[C@H](O)[C@@H]3OP(=O)(O)OC[C@]45C[C@@H]4[C@@H](n4cnc6c(N)ncnc64)[C@H](O)[C@@H]5O[P@@](=O)([S][Na])OC[C@@]34C[C@H]24)c(=O)[nH]1` [Compound 1-38b]: the 50% effective concentration (EC50) runs as follows: under setting [3], above 100 µM; under setting [4], above 100 µM.

`CO[C@H]1[C@H]2OP(=O)(O)OC[C@@]34C[C@@H]3[C@@H](n3ccc5c(N)ncnc53)[C@H](O)[C@@H]4OP(=O)(O)OC[C@H]1O[C@H]2n1cnc2c(=O)[nH]c(N)nc21` [Compound 1-4]: the concentration for a half-maximal effect (EC50) reads like this: under setting [1], below 0.25 µM; under setting [2], below 0.25 µM.
